Patent US20110020312A1, “METHODS FOR TREATMENT OF METABOLIC DISORDERS USING EPIMETABOLIC SHIFTERS, MULTIDIMENSIONAL INTRACELLULAR MOLECULES, OR ENVIRONMENTAL INFLUENCERS” (priority 2009, published 2011)

What was measured:
HASMC cells = assay: Extracellular acidification rate (ECAR), SeaHorse XF analyzer; assay type: cell-based, human; settings: hyperglycemic HASMC cells in hypoxic conditions
Description: Environmental influencers (e.g., MIMs or Epi-shifters) may also be identified by changes in cellular energetics. One example of the measurement of cellular energetics are the real-time measures of the consumption of molecular oxygen and/or the change in pH of the media of a cell culture. For example, the ability of a potential epi-shifter to modulate the metabolic state of a cell may be analyzed using, for example, the XF24 Analyzer (Seahorse, Inc.). This technology allows for real time detection of oxygen and pH changes in a monolayer of cells in order to evaluate the bioenergetics of a cell microenvironment. The XF24 Analyzer measures and compares the rates of oxygen consumption (OCR), which is a measure of aerobic metabolism, and extracellular acidification (ECAR), which is a measure of glycolysis, both key indicators of cellular energetics.
(SeaHorse Biosciences Inc, North Billerica, Mass.).
In this experiment, the OCR and extracellular acidification rate (ECAR) in normal cells lines were obtained in the presence and absence of CoQ10 to determine baseline values. It was observed that in its native nutrient environment, the basal OCR rates in normal cells lines are different, and are usually a function of the physiological roles of the cells in the body.
In Table 52 the measured baseline ECAR values (mpH/min) in HASMC were higher compared to that of HDFa. […]

HK-2 cells = assay: Diabetes PCR array in cell model for diabetes (22 mM glucose); assay type: cell-based, human
Protocol: The HK-2 and HASMC cells are normally maintained in culture at 5.5 mM glucose, which is a concentration that corresponds to a range considered normal in human blood. However, in order to simulate a diabetic environment, both cell lines were subsequently maintained at 22 mM glucose, which corresponds to the range observed in human blood associated with chronic hyperglycemia. The cells were subsequently allowed to propagate over 3 passages so that the intracellular regulation processes were functionally adapted to mimic a diabetic state. The choice of cell line was based on the physiologic influence of diabetes on renal dysfunction and progression to end-stage renal disease (ESRD) in addition to the progressive pathophysiology of a compromised cardiovascular function.
The Diabetes PCR array (SABiosciences) offers a screen for 84 genes simultaneously.
A stringent analysis of the Real time PCR data of the HK-2 samples on the Diabetes Arrays (Cat # PAHS-023E, SABiosciences Frederick Md.) was made to exclude all results where gene regulation was not at least a two-fold regulation over HK-2 normal untreated cells with a p value of less than 0.05.

[1] = cited from earlier work
SkBr-3 cells = assay: Real-time PCR Apoptosis Array; assay type: cell-based, human
Protocol: Changes in mRNA levels were evaluated using real-time PCR quantification to assess mRNA levels in pre-selected subsets containing […] pathway specific targets.
For the interpretation of mRNA results, the genes that were altered in their mRNA transcription by a two-fold level were identified and evaluated. The level of gene transcription to produce mRNA only provides a rough estimate of potential changes in the level of the expressed protein. The skilled artisan will appreciate that each mRNA may have different rates at which it is degraded or its translation inefficiently, thus resulting in differing amounts of protein.
The assay method of RT-PCR was utilized to provide a measure of mRNA level changes to a total of 84 apoptotic pathway related proteins.

[2] = tested on: HepG2 (liver cancer) cells; assay: PCR Diabetes Array; assay type: cell-based
Protocol: The treatment was initiated on 1×10^5 cells per well, following the procedure utilized in the PaCa2 cells (above, Examples 9-11). However, the total amount of RNA that was extracted from these samples was lower than expected. Reverse transcription is normally done using 1 μg of total RNA (determined by measurement at 260 nm). The maximum volume that can be used per reverse transcription is 8 μl.

[3] = tested on: Succinate Dehydrogenase (SDH) Subunit B; assay: Western blot, Succinate Dehydrogenase B in mitochondrial preparations; assay type: cell-based; settings: for Succinate Dehydrogenase B Average Normalized Volume: NCIE0808 Mitopreps
Protocol: The above blots were stripped by incubating for 30 minutes with methanol, followed by two 10 minute washes with TBS-T, then 30 minutes of incubation with Stripping buffer at 50 deg C., and followed by two washes with 100 ml or more of TBS-T for 30′ each. The blots were scanned in laser scanner to check for complete stripping. The blots were activated with methanol for 5 seconds, washed with water for 5 minutes, and TBST for 15 minutes. The blots were blocked for 1 hour with 5% blocking reagent in TBS-T at room temperature and then washed 3 times with TBS-T (1×-15′; 2×5′ each) and probed with the primary antibody for PKM2, SDHB or SDHC in 5% BSA in TBS-T by incubation overnight at 4 deg C. with gentle shaking. The primary antibody for SDHC (ABNOVA H00006391-MO2; antimouse) was at 1:500 dilution. The primary antibody for SDHB was from Abcam ab4714-200; antimouse; at 1:1000 dilution. The primary antibody for Pyruvate Kinase M2 (PKM2) was from Novus Biologicals H00005315-D0IP; antirabbit; at 1:500 dilution. After incubation with primary antibodies, the membranes were washed 3 times with TBS-T (1×-15′; 2×5′ each) and probed with the secondary antibody (SDHB & C antimouse; and PKM2 antirabbit; 1:10,000 dilution) for 1 h on the orbital tilting shaker at room temperature. After 1 h of incubation, the blots were washed 3 times with TBS-T (1×-15′; 2×5′ each) and incubated with ECF reagent for 5 minutes and then each blot scanned with 5100 Fuji Laser scanner at 25 uM resolution, 16 bit, green laser, at 400V and at 500 V.

melanoma cell = assay: Bcl2 level after CoQ-10 in the presence of VEGF; assay type: cell-based

## COC1=C(OC)C(=O)C(C/C=C(\C)CC/C=C(\C)CC/C=C(\C)CC/C=C(\C)CC/C=C(\C)CC/C=C(\C)CC/C=C(\C)CC/C=C(\C)CC/C=C(\C)CCC=C(C)C)=C(C)C1=O [Q10, Coenzyme Q10]
HASMC cells
  ECAR rates: downward trend
HK-2 cells; HK2(H) cells, particularly with 100 μM Coenzyme Q10
  CEACAM1 RNA transcript: highly upregulated
HK-2 cells; diabetic HK-2 cells
  insulin receptor (INSR) expression: altered
[1]
  solubility in water: insoluble in water
SkBr-3 cells; Q10 (24 hr)
  mRNA's being affected (Apoptosis array): Bcl2, Bcl2L1, Bcl2L11, Birc6, Bax, Xiap, Hprt1, Apaf1, Ab11, Braf
SkBr-3 cells; one of the highest
  Bcl-xl mRNA level: significant up-regulation
[2]; 100 μM Q10, 16 hours
  PPARGC1A mRNA downregulated: approximately 20 fold
  PRKAA1 mRNA downregulated: ~6 fold
  SNAP25 mRNA downregulated: ~5 fold
[2]; 100 μM Q10, 48 hours
  PPARGC1A mRNA: normalized or were slightly upregulated
  PRKAA1 mRNA: normalized or were slightly upregulated
  SNAP25 mRNA downregulated: approximately 2 fold
[3]; 50 uM, 6 h
  Succinate Dehydrogenase B Average Normalized Volume: 1077
[3]; 100 uM, 3 h
  Succinate Dehydrogenase B Average Normalized Volume: 964
[3]; 100 uM, 6 h
  Succinate Dehydrogenase B Average Normalized Volume: 934
[3]; mitochondrial preparations of cancer cells
  SDH protein levels in the mitochondrion: increase
Melanoma cell
  level of Bcl2: decreased level
